Results from patent US20230103554A1, “TNFa SIGNALING [sequence] TUMOR-PROMOTING INFLAMMATION THAT CAN BE TARGETED TO THERAPY” (Baylor College of Medicine, priority 2020, published 2023).

Columns and labels:
Assay type in all cases: in vivo, mouse
murine CD31 = assay: Murine CD31 immunofluorescence of xenograft tumors (angiogenesis); conditions: CHLA-255-luc/monocyte tumors
Description: (FIG. 17A) Tumors recovered from mice in FIG. 16 were snap frozen in OTC media, thin sectioned, and stained for murine CD31 expression (red) and DAPI counterstain (blue). Results shown are representative images from five fields of view (FOVs) per tumor, with five tumors per group. Scale bar 50 μm. (FIG. 17B) Total number of CD31+ regions per FOV with box and whisker plot showing quartiles±range (Ctrl n=15, Etan n=25). (FIG. 17C) Size of each CD31+ area quantified per FOV; shown is median CD31+ area per FOV with box and whisker plot showing quartiles±range (Ctrl n=15, Etan n=25) (FIG. 17D) Longest distance across each CD31+ area (Max Feret distance) per FOV; shown is median distance per FOV with box and whisker plot showing quartiles±range (Ctrl n=15, Etan n=25). (FIG. 17E) Eukaryotic mRNA-seq was performed on tumor samples, and mouse transcripts were excluded from analysis by XenoFilterR program. Differentially regulated genes were identified using two-fold expression difference and adjusted P value<0.05 as cutoffs.
Tumors from in vivo experiments were snap-frozen in OTC Media (Tissue-Tek, VWR) and cryo-sectioned into 5 μm thin sections (Texas Children's Hospital Histology Core, Houston, Tex.). Samples were fixed and permeabilized in ice-cold acetone for 10 minutes at −20 C and blocked in TBS containing 5% normal goat serum (CST) and 1% BSA (Sigma) for 2 hours at RT. Rat anti-mouse CD31 primary antibody (Invitrogen, clone 390) was diluted 1:10 in staining buffer (TBS, 1% NGS, 1% BSA) overnight at 4 C. […] Slides were counterstained with 1 μg/mL DAPI (BD Biosciences) for five minutes and mounted with fluorescence mounting media (Fluoromount G, Invitrogen). […] Images were processed and analyzed using FIJI/ImageJ software (NIH). To quantify CD31+ staining, images were thresholded (default, 1800 MIN, Infinity MAX), converted to binary, and analyzed using the FIJI/ImageJ “Analyze Particle” function excluding regions smaller than 25 μm2. […]

[1] = test system: SK-N-AS-luc/monocyte xenografts; assay: SK-N-AS-luc/monocyte subcutaneous xenograft in NSG mice
Experimental: Luciferase-labeled NB and freshly isolated human monocytes were embedded in Matrigel and injected into the subcutaneous right flank of 8-week female NSG mice. […] (FIG. 9A) Tumor growth was tracked indirectly through luminescence imaging using IVIS Imaging system. (FIG. 9B) Average tumor luminescence of each group over time. After 3 weeks, mice were sacrificed and the tumor size was analyzed directly by weight. The bottom line is NB+Mono+FcTNFR and the top line is NB+Mono+IgG. (FIG. 9C) Representative image of 5 tumors from each group. (FIG. 9D) Tumor weight by group after Log10 transformation of weight (in mg). * p<0.05, ** p<0.01;
(FIG. 27A) SK-N-AS-luc and freshly isolated human monocytes were embedded in matrigel and injected into the subcutaneous right flank of eight-week female NSG mice. […] Representative luminescence images (Ctrl n=7, Etan n=13) measured in radiance (photons/second/cm2/steradian). (FIG. 27B) Graphical representation of total luminescence per tumor from (A) over time. (FIG. 27C) Mean tumor total luminescence over time, two-way ANOVA with Bonferroni multiple comparisons test (Ctrl n=7, Etan n=13); NB/Mon+Ctrl line is on top. (FIG. 27D) Representative tumors for each group following sacrifice at day 21. * p<0.05; […]

[2] = test system: CHLA-255-luc/monocyte xenografts; assay: CHLA-255-luc/monocyte subcutaneous xenograft in NSG mice
Description: (FIG. 16A) In vivo subcutaneous xenograft model. CHLA-255-luc and freshly isolated human monocytes were embedded in Matrigel and injected into the subcutaneous right flank of eight-week female NSG mice. […] (FIG. 16B) Luminescence readings for each mouse (n=10/group) measured in radiance (photons/second/cm2/steradian). (FIG. 16C) Graphical representation of total luminescence per tumor from (FIG. 16B) over time. (FIG. 16D) Mean tumor luminescence over time, two-way ANOVA with Bonferroni multiple comparisons test (n=10 per group). The top line is NB/Mon+Ctrl. (FIG. 16E) Representative tumors for each group following sacrifice at day 21. ** p<0.01;
Six-week old female NOD/SCID/IL-2Ry-null (NSG) mice were purchased from The Jackson Laboratory and maintained at the Baylor College of Medicine (BCM) animal care facility. At eight-weeks of age, mice were injected in the subcutaneous right flank with either 1×106 CHLA-255-luc (or SK-N-AS-luc) or a combination of 1×106 CHLA-255-luc and 1×10^6 human monocytes (or SK-N-AS-luc/monocyte) embedded in growth factor-reduced Matrigel (Corning) as previously described (54). […] Tumor growth was measured indirectly by weekly bioluminescent imaging (Small Animal Imaging Core Facility, Texas Children's Hospital). After three weeks, mice were euthanized and tumors were saved for IHC (see Tumor IHC) and RNA-seq (see RNA Analysis).

[3] = 5 mg/kg (100 μg) i.p. bi-weekly, vs IgG control

Which “vessel formation by CD31 immunofluorescence” value (murine CD31; vs IgG control) does the source give for etanercept here?
The value was “failed to form distinct vessels”.

What about the “average area of CD31+ regions per FOV” value (murine CD31; vs control) of the same substance?
Its value is “significantly smaller”.

What about the “vessel length (maximum linear distance across CD31+ regions)” value (murine CD31; vs control) of the same substance?
The value was “significantly shorter”.

What about the “reduction of tumor growth (luminescence)” value [1, 3] of the same substance?
Its value is 30%.

What about the growth of tumors ([1]; SK-N-AS + monocytes in Matrigel, 100 μg bi-weekly, vs IgG control (FIG. 9)) of the same substance?
Its growth of tumors is “significantly decreased the growth of tumors”.

And the “reduction of tumor growth (luminescence)” value [2, 3]?
Its value is 65%.

What about the “macroscopic blood vessel development of treated tumors” value ([2]; etanercept bi-weekly, vs control tumors) of the same substance?
Its value is “appeared to lack blood vessel development”.
